US20030083357A1, “Oxime derivatives for the treatment of dyslipidemia and hypercholesteremia” (priority 2001, published 2003)
Entries after “also recorded” stand apart in the source; their conditions may differ.

How the values were obtained:
[1] = tested on: Sprague Dawley Rats Maintained on a High Cholesterol Atherogenic Diet; experiment: Oral treatment of hypercholesterolemia in Sprague Dawley rats on a high cholesterol atherogenic diet; type: in vivo, rat; conditions: 10 mg/kg once daily by oral gavage in sesame oil, five days, p≦0.01
Description: Six week-old male Sprague Dawley rats (HSD, Harlan) were housed in a fixed 12-12- hr artificial light-dark cycle, and maintained on a high cholesterol, atherogenic diet ad libitum (#C13002, Research Diets, NJ).
Animals were maintained on this diet throughout the course of the study.
Following six days of maintenance on the high cholesterol diet, the animals were bled from the tail vein (100-200 μL of whole blood) and serum levels of total cholesterol were measured in duplicate (Infinity Cholesterol Kit; Sigma, St. Louis, Mo.). Based on these initial measures, animals were sorted into groups with approximately the same average serum cholesterol levels. Once sorted, the animals were housed three per cage and maintained on the high cholesterol diet ad libitum.
Treatment groups(n=6/group):
1) Lean Sprague Dawley control (sesame oil)
2) High cholesterol fed control (sesame oil)
3) Compound 1 in sesame oil (10 mg/kg; once daily)
Drug is prepared by mixing Compound 1 in sesame oil, and administered to animals in a volume of 3 ml/kg/dose. Drug is administered by oral gavage daily for five consecutive days.
To monitor the effect of Compound 1, animals were bled from the tail vein five days after commencement of oral treatment. Serum cholesterols were measured in duplicate. […]

[2] = tested on: Obese, Glucose Intolerant Zucker Fatty Rats (fa/fa); experiment: Glucose tolerance test in obese, glucose intolerant Zucker Fatty Rats (fa/fa) after oral treatment; type: in vivo, rat; conditions: 10 mg/kg once daily by oral gavage in sesame oil, 1 week; 2 g/kg oral glucose after 12 hr fast, serum glucose at 0.5, 1, 2 hours; p<0.05 and p<0.01; FIG. 3
Description: Ten week-old male Zucker Fatty Rats (fa/fa; Harlan) were housed in a fixed 12-12- hr artificial light-dark cycle, and maintained on a standard diet provided ad libitum. Animals were allowed two days to acclimate in this experimental environment prior to the initiation of the study.
Prior to initiation of treatment, the animals were bled from the tail vein (100-200 μL of whole blood) and serum levels of triglycerides were measured in duplicate (Infinity kits; Sigma, St. Louis, Mo.). Based on these initial measures, animals were sorted into groups with approximately the same average serum triglyceride levels. Once sorted, the animals were housed one per cage and provided standard rodent diet ad libitum.
Treatment groups (n=5/group):
2) Compound 1 in sesame oil (10 mg/kg once daily)
Drug is prepared by mixing Compound 1 in sesame oil, and administered to animals in a volume of 3 ml/kg/dose. Drug is administered by oral gavage once daily.
To monitor the effect of Compound 1, animals were tested in a glucose tolerance test. One day prior to the tolerance test, the animals were fasted overnight (12 hr fast). Animals were then bled at 0 hours to establish baseline glucose levels. […] The animals were then bled 0.5, 1, and 2 hours later and serum glucose levels were measured in duplicate. […]

COc1ccc(/C=N/O)cc1-c1cc2c(cc1C)C(C)(C)CCC2(C)C [Compound 1, 3-(3,5,5,8,8-Pentamethyl-5,6,7,8-tetrahydro-2-naphthyl)-4-methoxybenzaldehyde oxime]
total serum cholesterol ([1]; compared to control animals on the same atherogenic diet, FIG. 1): significantly reduced | LDL cholesterol levels ([1]; compared to controls, FIG. 2): reduced | glucose clearance rate (glucose tolerance test) [2]: improvement of glucose tolerance; also recorded: significant increase | melting point: 152 °C
